Laboratory results as given in publication PMC3433420 (PLoS ONE, 2012).
Where two headings read alike, the source gives them in different places. Residues, ends and D or L forms follow the SMILES beside them.

Tests used:
[1] = target: T1, PIK3R3-NC tandem SH2 domains (Homo sapiens, UniProt Q92569); experiment: FP saturation binding assay; conditions: protein PIK3R3-NC; FP, high-confidence ErbB interactions; mean of replicate hits
T1 construct: the tandem protein was included in our analysis with all internal amino acids linking the domains; 6X His; thioredoxin; made in house; host or cells: E. coli BL21(DE3)pLysS
Procedure: (See Figure 1A) Rhodamine-labeled peptides were dissolved in assay buffer (20 mM HEPES, 100 mM KCl, 0.1% Tween-20, 5 mM DTT, pH 7.8), diluted to a concentration of 20 nM, and plated into black 384-well plates (Corning, Corning, NY) at 5 µL/well using a Perkin Elmer EP3 pipetting workstation (V&P Scientific, Inc., San Diego, CA). SH2, PTB, and thioredoxin control proteins were plated into the first column of 2 mL 96-well plates (Corning) at a concentration of 20 µM and serially diluted 1∶2 into freezing buffer (300 mM NaCl, 50 mM Na2PO4, pH 8, 20% glycerol v/v) eleven times using a Tecan Freedom EVO 100 workstation (Tecan, Männedorf, Switzerland). For the interaction assay, 5 µL of each of the twelve protein concentrations was added to the peptide-containing 384-well plates via the EP3 resulting in a protein dilution range of 0.002–10 µM and a final volume of 10 µL; peptide concentration was fixed at 10 nM. Peptide/protein samples were incubated for 20 minutes at room temperature in the dark and fluorescence polarization (FP) was measured in an Analyst GT multimode reader (Molecular Devices, Sunnyvale, CA) with excitation and emission wavelengths of 530 nm and 555 nm, respectively. Experimental values were output as millipolarization (mP) units and imported into MATLAB (The MathWorks, Inc., Natick, MA) in which equation (1) was used to determine dissociation constants (KDs) for each protein/peptide pairing by least squares nonlinear regression. [drawing 1] (1)
FP was described by the following equation: P=Iparallel-IperpendicularIparallel+Iperpendicular, where “P” denotes polarization, and “I” denotes the fluorescent intensity relative to the plane of incident light. Experimental values were output as millipolarization (mP) units and imported into MATLAB where the following equation was used to determine dissociation constants (KDs) for each protein/peptide pairing by least squares nonlinear regression:
Pobs=Pmax∙ProteinKD+Protein [picture] (1)
Peptides were initially tested for systematic plate effects across protein dilutions and nonspecific binding to thioredoxin by linear regression analysis and any effects were regressed out. The median baseline control polarization value for each plate was then subtracted from each data point to make each binding curve intersect at zero. Plates with excessive variation in baseline control polarizations on both a global and run-specific manner (Dixon’s Q test, p < 0.05) were excluded from further analysis. Outliers in each binding curve were identified and removed using an iterative procedure as follows. The residuals for each fit were used to calculate a global standard deviation of the residuals (GSDR) for each concentration of SH2 domain over all interactions, and individual data points with residuals < or > two GSDR from the global mean residual were flagged as outliers. The outlier with the largest residual from each interaction was removed and nonlinear regression was again performed. This procedure was repeated if additional outliers were identified for an interaction, discarding the interaction if the number of outliers exceeded three. […] In order to further control our false positive rate against hidden confounding variables producing binding artifacts, we sought to determine whether there was a significant relationship between the strength of an interaction and its technical replication rate at our stringent significance and filtering thresholds. We performed logistic regression on the proportion of successful replicates for each interaction query against KD for all interactions (Figure S15A). […] This is related to the observation that the majority of interactions detected by FP are tight (Figure S15B). With this logit model, we assigned a probability to each peptide-protein interaction in our data by using a binomial proportions test to compare the observed versus the expected replication rate at the particular KD of that interaction (Table S4). […]

PIK3R1-N SH2 domain = target: T2, PIK3R1-N SH2 domain (Homo sapiens, UniProt P27986); experiment: biochemical; format: binding; conditions: Protein PIK3R1-N; FP saturation binding, high-confidence ErbB interactions; mean over replicate hits
T2 construct: thioredoxin; made in house; host or cells: E. coli BL21(DE3)pLysS
T2 sequence (P27986 333-428 limits assumed): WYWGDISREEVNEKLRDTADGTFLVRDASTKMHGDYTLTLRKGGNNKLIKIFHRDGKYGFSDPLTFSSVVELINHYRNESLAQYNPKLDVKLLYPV

GRB7 SH2 domain = GRB7 SH2 domain (Homo sapiens, UniProt Q14451); design: 6X His; thioredoxin; made in house; host or cells: E. coli BL21(DE3)pLysS; conditions: Protein GRB7, most recent PM interactions, cited from earlier work
Sequence of GRB7 SH2 domain (Q14451 431-527 limits assumed): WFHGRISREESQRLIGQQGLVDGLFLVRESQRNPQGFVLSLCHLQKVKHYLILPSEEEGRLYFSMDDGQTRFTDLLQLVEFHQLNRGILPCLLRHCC

SH2 and PTB domains = conditions: most recent PM interactions, cited from earlier work
Text: Supplement pone.0044471.s022.xlsx, sheet "Most recent PM interactions" | column: Kd || Supplement pone.0044471.s022.xlsx, sheet "All original PM interactions" | column: Kd

[2] = ref Jones et al. 2006 / Kaushansky et al. Chem and Biol 2008
[3] = Protein BLK, ref Jones et al. 2006 / Kaushansky et al. Chem and Biol 2008
[4] = Protein SRC, ref Jones et al. 2006 / Kaushansky et al. Chem and Biol 2008
[5] = Protein SYK-NC, ref Jones et al. 2006 / Kaushansky et al. Chem and Biol 2008
[6] = Protein YES1, ref Jones et al. 2006 / Kaushansky et al. Chem and Biol 2008

CSCC[C@H](NC(=O)[C@@H]1CCCN1C(=O)[C@H](CCSC)NC(=O)[C@H](Cc1ccc(OP(=O)(O)O)cc1)NC(=O)CNC(=O)[C@H](CO)NC(=O)[C@H](CO)NC(=O)[C@@H]1CCCN1)C(=O)N[C@@H](CC(N)=O)C(=O)N[C@@H](CCC(N)=O)C(=O)NCC(=O)N[C@@H](CC(N)=O)C(=O)N[C@@H](CC(=O)O)C(=O)O [ErbB3 1054 13-mer] (HELM PEPTIDE1{P.S.S.G.[O=C([C@H](Cc1ccc(OP(=O)(O)O)cc1)N[*:1])[*:2]].M.P.M.N.Q.G.N.D}$$$$V2.0)
Kd [1]: 260 nM
Kd (PIK3R1-N SH2 domain): 1800 nM

LPSPTDSNFpYRALMDEEd [ErbB1 998]
Kd (GRB7 SH2 domain; ref Jones et al. 2006 / Kaushansky et al. Mol Biosys 2008 / Kaushansky et al. Chem and Biol 2008): 760 nM
Kd (SH2 and PTB domains; Protein BLK, ref Jones et al. 2006 / Kaushansky et al. Mol Biosys 2008 / Kaushansky et al. Chem and Biol 2008): 190 nM
Kd (SH2 and PTB domains; Protein FES, ref Jones et al. 2006 / Kaushansky et al. Mol Biosys 2008 / Kaushansky et al. Chem and Biol 2008): 1230 nM
Kd (SH2 and PTB domains; Protein GRB10, ref Jones et al. 2006 / Kaushansky et al. Mol Biosys 2008 / Kaushansky et al. Chem and Biol 2008): 1690 nM
Kd (SH2 and PTB domains; Protein ITK, ref Jones et al. 2006 / Kaushansky et al. Mol Biosys 2008 / Kaushansky et al. Chem and Biol 2008): 280 nM
Kd (SH2 and PTB domains; Protein PIK3R1-NC, ref Jones et al. 2006 / Kaushansky et al. Mol Biosys 2008 / Kaushansky et al. Chem and Biol 2008): 240 nM
Kd (SH2 and PTB domains; Protein PIK3R3-NC, ref Jones et al. 2006 / Kaushansky et al. Mol Biosys 2008 / Kaushansky et al. Chem and Biol 2008): 970 nM
Kd (SH2 and PTB domains; Protein PLCG2-NC, ref Jones et al. 2006 / Kaushansky et al. Mol Biosys 2008 / Kaushansky et al. Chem and Biol 2008): 1390 nM
Kd (SH2 and PTB domains; Protein RASA1-N, ref Jones et al. 2006 / Kaushansky et al. Mol Biosys 2008 / Kaushansky et al. Chem and Biol 2008): 710 nM
Kd (SH2 and PTB domains; Protein RASA1-NC, ref Jones et al. 2006 / Kaushansky et al. Mol Biosys 2008 / Kaushansky et al. Chem and Biol 2008): 1650 nM
Kd (SH2 and PTB domains; Protein SH2B3, ref Jones et al. 2006 / Kaushansky et al. Mol Biosys 2008 / Kaushansky et al. Chem and Biol 2008): 1360 nM
Kd (SH2 and PTB domains; Protein SHC1-PTB, ref Jones et al. 2006 / Kaushansky et al. Mol Biosys 2008 / Kaushansky et al. Chem and Biol 2008): 1150 nM
Kd (SH2 and PTB domains; Protein SHC2-PTB, ref Jones et al. 2006 / Kaushansky et al. Mol Biosys 2008 / Kaushansky et al. Chem and Biol 2008): 980 nM
Kd (SH2 and PTB domains; Protein SRC, ref Jones et al. 2006 / Kaushansky et al. Mol Biosys 2008 / Kaushansky et al. Chem and Biol 2008): 1140 nM
Kd (SH2 and PTB domains; Protein SYK-NC, ref Jones et al. 2006 / Kaushansky et al. Mol Biosys 2008 / Kaushansky et al. Chem and Biol 2008): 910 nM
Kd (SH2 and PTB domains; Protein YES1, ref Jones et al. 2006 / Kaushansky et al. Mol Biosys 2008 / Kaushansky et al. Chem and Biol 2008): 720 nM
Kd (SH2 and PTB domains; Protein ZAP70-NC, ref Jones et al. 2006 / Kaushansky et al. Mol Biosys 2008 / Kaushansky et al. Chem and Biol 2008): 1650 nM

MGDLVDAEEpYLVPQQGF [ErbB2 1023]
Kd (GRB7 SH2 domain; [2]): 1800 nM
Kd (SH2 and PTB domains; [3]): 600 nM
Kd (SH2 and PTB domains; Protein ITK, ref Jones et al. 2006 / Kaushansky et al. Chem and Biol 2008): 450 nM
Kd (SH2 and PTB domains; Protein PIK3R1-NC, ref Jones et al. 2006 / Kaushansky et al. Chem and Biol 2008): 1640 nM
Kd (SH2 and PTB domains; Protein PIK3R2-N, ref Jones et al. 2006 / Kaushansky et al. Chem and Biol 2008): 1950 nM
Kd (SH2 and PTB domains; Protein PIK3R3-N, ref Jones et al. 2006 / Kaushansky et al. Chem and Biol 2008): 1930 nM
Kd (SH2 and PTB domains; Protein PIK3R3-NC, ref Jones et al. 2006 / Kaushansky et al. Chem and Biol 2008): 530 nM
Kd (SH2 and PTB domains; Protein PLCG1-C, ref Jones et al. 2006 / Kaushansky et al. Chem and Biol 2008): 1460 nM
Kd (SH2 and PTB domains; Protein RASA1-N, ref Jones et al. 2006 / Kaushansky et al. Chem and Biol 2008): 2000 nM
Kd (SH2 and PTB domains; Protein RASA1-NC, ref Jones et al. 2006 / Kaushansky et al. Chem and Biol 2008): 1770 nM
Kd (SH2 and PTB domains; [4]): 760 nM
Kd (SH2 and PTB domains; Protein SUPT6H, ref Jones et al. 2006 / Kaushansky et al. Chem and Biol 2008): 910 nM
Kd (SH2 and PTB domains; [5]): 370 nM
Kd (SH2 and PTB domains; [6]): 1170 nM

RLLDIDETEpYHADGGKVd [ErbB2 877]
Kd (GRB7 SH2 domain; ref Kaushansky et al. Chem and Biol 2008): 1200 nM
Kd (SH2 and PTB domains; Protein BLK, ref Kaushansky et al. Chem and Biol 2008): 720 nM
Kd (SH2 and PTB domains; Protein PLCG2-N, ref Kaushansky et al. Chem and Biol 2008): 650 nM
Kd (SH2 and PTB domains; Protein PLCG2-NC, ref Kaushansky et al. Chem and Biol 2008): 1100 nM
Kd (SH2 and PTB domains; Protein RASA1-NC, ref Kaushansky et al. Chem and Biol 2008): 1400 nM
Kd (SH2 and PTB domains; Protein YES1, ref Kaushansky et al. Chem and Biol 2008): 1890 nM

TEEEDEDEEpYEYMNRRR [ErbB3 1197]
Kd (GRB7 SH2 domain; [2]): 130 nM
Kd (SH2 and PTB domains; Protein ABL1, ref Jones et al. 2006 / Kaushansky et al. Chem and Biol 2008): 1430 nM
Kd (SH2 and PTB domains; Protein ABL2, ref Jones et al. 2006 / Kaushansky et al. Chem and Biol 2008): 1110 nM
Kd (SH2 and PTB domains; [3]): 70 nM
Kd (SH2 and PTB domains; Protein FGR, ref Jones et al. 2006 / Kaushansky et al. Chem and Biol 2008): 710 nM
Kd (SH2 and PTB domains; Protein LYN, ref Jones et al. 2006 / Kaushansky et al. Chem and Biol 2008): 1070 nM
Kd (SH2 and PTB domains; [4]): 870 nM
Kd (SH2 and PTB domains; [5]): 890 nM
Kd (SH2 and PTB domains; [6]): 130 nM
